Data: patent US5677329A, “Styryl-substituted monocyclic and bicyclic heteroaryl compounds which inhibit EGF receptor tyrosine kinase” (Rhone-Poulenc Rorer Pharmaceuticals, Inc., priority 1995, dated 1997)
Entries after “also recorded” stand apart in the source; their conditions may differ. Where two headings read alike, the source gives them in different places.

Experiments:
EGF receptor [1] = experiment: ATP dependence of EGF-receptor autophosphorylation (10-s assay); format: biochemical; conditions: 15° C., read-out: Km for ATP in EGFR autophosphorylation
Procedure: EGF-Receptor Purification
EGF-receptor purification is based on the procedure of Yarden and Schlessinger. A431 cells are grown in 80 cm^2 bottles to confluency (2×10^7 cells per bottle). The cells are washed twice with PBS and harvested with PBS containing 1.0 mmol EDTA (1 hour at 37° C.), and centrifuged at 600 g for 10 minutes. The cells are solubilized in 1 ml per 2×10^7 cells of cold solubilization buffer (50 mmol Hepes buffer, pH 7.6, 1% Triton X-100, 150 mmol NaCl, 5 mmol EGTA, 1 mmol PMSF, 50 μg/ml aprotinin, 25 mmol benzamidine, 5 μg/ml leupeptic, and 10 μg/ml soybean trypsin inhibitor) for 20 minutes at 4° C. After centrifugation at 100000 g for 30 minutes, the supernatant is loaded onto a WGA-agarose column (100 μl of packed resin per 2×10^7 cells) and shaken for 2 hours at 4° C. The unabsorbed material is removed and the resin washed twice with HTN buffer (50 mmol Hepes, pH 7.6, 0.1% Triton X-100, 150 mmol NaCl), twice with HTN buffer containing 1M NaCl, and twice with HTNG buffer (50 mmol Hepes, pH 7.6, 0.1% Triton X-100, 150 mmol NaCl, and 10% glycerol). The EGF receptor is eluted batchwise with HTNG buffer containing 0.5M N-acetyl-D-glucosamine (200 μl per 2×10^7 cells). The eluted material is stored in aliquots at -70° C. and diluted before use with TMTNG buffer (50 mmol Tris-Mes buffer, pH 7.6, 0.1% Triton X-100, 150 mmol NaCl, 10% glycerol).

EGFR = molecular target: T1, EGFR (Homo sapiens, UniProt P00533); experiment: Inhibition of EGFR autophosphorylation (anti-EGF-R immunoprecipitate from A431 cells, EGF stimulation); format: biochemical; conditions: for Relative inhibition of EGF receptor kinase, in words: comparison from Table V
T1 construct: endogenous in cells; host or cells: A431 cells (detergent lysate, anti-EGF-R Ab 108 immunoprecipitate)
T1 sequence (P00533 25-1210): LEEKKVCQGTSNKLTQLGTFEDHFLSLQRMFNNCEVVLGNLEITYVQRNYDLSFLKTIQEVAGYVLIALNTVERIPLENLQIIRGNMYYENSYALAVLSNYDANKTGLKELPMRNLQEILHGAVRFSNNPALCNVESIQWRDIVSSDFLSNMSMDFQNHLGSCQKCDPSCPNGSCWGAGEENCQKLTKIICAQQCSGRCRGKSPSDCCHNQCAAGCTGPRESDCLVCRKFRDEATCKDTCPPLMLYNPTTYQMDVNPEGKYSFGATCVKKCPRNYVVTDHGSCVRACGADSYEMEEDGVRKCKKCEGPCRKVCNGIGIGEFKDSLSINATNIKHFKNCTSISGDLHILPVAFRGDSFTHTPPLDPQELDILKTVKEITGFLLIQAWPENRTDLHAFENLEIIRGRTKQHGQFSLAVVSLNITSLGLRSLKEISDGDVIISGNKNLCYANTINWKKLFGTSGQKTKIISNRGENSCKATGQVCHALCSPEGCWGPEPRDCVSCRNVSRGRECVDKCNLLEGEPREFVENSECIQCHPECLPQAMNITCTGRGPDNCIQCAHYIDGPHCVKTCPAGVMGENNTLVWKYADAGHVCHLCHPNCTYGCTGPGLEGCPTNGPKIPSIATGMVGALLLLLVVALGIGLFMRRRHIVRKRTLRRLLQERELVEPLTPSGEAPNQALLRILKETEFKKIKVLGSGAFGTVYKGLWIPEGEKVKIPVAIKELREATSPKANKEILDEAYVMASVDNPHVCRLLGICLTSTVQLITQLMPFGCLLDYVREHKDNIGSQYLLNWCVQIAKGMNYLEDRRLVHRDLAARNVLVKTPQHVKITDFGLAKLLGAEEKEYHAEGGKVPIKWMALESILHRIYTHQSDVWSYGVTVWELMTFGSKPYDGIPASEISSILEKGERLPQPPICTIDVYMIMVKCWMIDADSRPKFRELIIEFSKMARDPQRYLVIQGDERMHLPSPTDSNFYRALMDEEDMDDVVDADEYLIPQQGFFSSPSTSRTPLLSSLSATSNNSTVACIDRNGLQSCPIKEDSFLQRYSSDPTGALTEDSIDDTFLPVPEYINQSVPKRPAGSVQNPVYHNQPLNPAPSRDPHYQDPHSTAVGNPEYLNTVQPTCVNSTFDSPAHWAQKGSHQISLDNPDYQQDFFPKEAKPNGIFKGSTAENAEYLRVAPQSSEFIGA
Procedure: Inhibition of EGFR Autophosphorylation A431 cells were grown to confluence on human fibronectin coated tissue culture dishes. […] The reaction was stopped by adding hot electrophoresis sample buffer. […] "IC50," as used below, refers to the concentration of inhibitor (μM) at which the rate of autophosphorylation is halved, compared with media containing no inhibitor. […] The EGFR autophosphorylation inhibition was evaluated using the same procedure as described hereinbefore.

[2] = system: DNA synthesis in PDGF-stimulated cells; experiment: Inhibition of cell proliferation as measured by inhibition of DNA synthesis ([3H]thymidine incorporation), PDGF-stimulated cells; format: cell-based; conditions: Table IV; PDGF stimulation; [3H]thymidine incorporation halved
Procedure: (§1) Inhibition of Cell Proliferation as Measured by Inhibition of DNA Synthesis Cells were seeded at 1×10^5 cells per well in 24-well Costar dishes pre-coated with human fibronectin (by incubating for 30 minutes at room temperature with 10 μg/0.5 ml/well). The cells were grown to confluence for 2 days. The medium was changed to DMEM containing […] for 36-48 hours and the cells were then incubated with PDGF, EGF (Toyobo, New York, N.Y.) (20 ng/ml) or serum (10% calf serum, FCS) and different concentrations of the inhibitory compounds. [^3 H]thymidine,(NEN, Boston, Mass.) was added 16-24 hours later at 0.5 μCi/ml for 2 hours. TCA precipitable material was quantitated by scintillation counting (C).

PDGF receptor kinase = experiment: Inhibition of autophosphorylation, procedure repeated with PDGF stimulation; format: biochemical; conditions: Table III
[3] = system: DNA synthesis in serum (FCS)-stimulated cells; experiment: Inhibition of cell proliferation as measured by inhibition of DNA synthesis ([3H]thymidine incorporation), serum (10% FCS)-stimulated cells; format: cell-based; conditions: 10% calf serum (FCS); for IC50: Table IV, [3H]thymidine incorporation halved; for inhibition at 1 µM: read-out: Inhibition of [3H]thymidine incorporation, FCS (printed in the IC50 - FCS column)
Procedure: as §1

[4] = system: cyclic adenosine 3', 5'-monophosphate (cAMP)-dependent protein kinase; conditions: compared with EGF receptor autophosphorylation; cited from earlier work
EGF receptor [5] = conditions: membranes of A431 cells; cited from earlier work
other protein kinases = conditions: cited from earlier work
[6] = Table V, comparison with prior art compound C-1, same procedure as before, read-out: IC50, inhibition of EGFR autophosphorylation (Table V)
[7] = Table III, EGF stimulation, autophosphorylation 2 min at 4° C., read-out: IC50 EGF

Row | Structure (SMILES) | IC50 (PDGF receptor kinase) [nM] | IC50 (EGFR; [7]) [nM] | IC50 [2] [nM] | further results
1 | Nc1ncnc2c1ncn2[C@@H]1O[C@H](COP(=O)(O)OP(=O)(O)OP(=O)(O)O)[C@@H](O)[C@H]1O [ATP, adenosine triphosphate] |  |  |  | Km (EGF receptor [1]): 7.2 µM
2 | N#C/C(=C\c1cc(Cl)cc(Cl)c1)c1cccnc1 [Example 1A, trans-2-(3-Pyridyl)-3-(3,5-dichlorophenyl)-2-propenenitrile] |  |  |  | IC50 (EGFR; [6]): 2000 nM; Relative inhibition of EGF receptor kinase, in words (EGFR): more potent inhibitor of EGF receptor kinase than C-1; Relative inhibition of EGF receptor kinase, in words (EGFR; listed as 1-A): much better activity than that of its corresponding N-oxide
3 | COc1ccc(C=C(C#N)c2ccccn2)cc1OC [Example 3, 2-(2-Pyridyl)-3-(3,4-dimethoxyphenyl)-2-propenenitrile] | 6000 | 500 | 14 ± 10 | inhibition at 1 µM [3]: 27 ± 5%
4 | CC(C)(C)c1cc(C=C(C#N)c2ccccn2)cc(C(C)(C)C)c1 [Example 4, 2-(2-Pyridyl)-3-(3,5-di-tert-butylphenyl)-2-propenenitrile] |  |  | 9 ± 2 | IC50 [3]: 500 nM
5 | COc1ccc(C=C(C#N)c2cccnc2)cc1OC [Example 7, 2-(3-Pyridyl)-3-(3,4-dimethoxyphenyl)-2-propenenitrile] | 30000 | 400 |  | 
6 | N#CC(=Cc1ccc(Cl)cc1Cl)c1cccnc1 [Example C-1, 2-(3-pyridyl)-3-(2,4-dichlorophenyl)-2-propenenitrile, reference compound] |  |  |  | IC50 (EGFR; [6]): ≥ 50000 nM
7 | O=CN/C=C/c1cc(O)ccc1O [erbstatin] |  |  |  | Concentrations required to inhibit cAMP-dependent protein kinase, in words [4]: much higher concentrations of erbstatin are required; Inhibition of EGF receptor autophosphorylation, in words (EGF receptor [5]): inhibits the autophosphorylation of the EGF receptor; also recorded: Low concentrations of erbstatin are required to inhibit EGF receptor autophosphorylation
8 | O=c1c(-c2ccc(O)cc2)coc2cc(O)cc(O)c12 [genistein] |  |  |  | Competition with ATP; inhibition of other protein kinases, in words (other protein kinases): compete with ATP, inhibit other protein kinases
9 | O=c1c(O)c(-c2ccc(O)c(O)c2)oc2cc(O)cc(O)c12 [quercetin] |  |  |  | Competition with ATP; inhibition of other protein kinases, in words (other protein kinases): compete with ATP, inhibit other protein kinases

Continued, in another order:

Row | IC50 (PDGF receptor kinase) [nM] | IC50 (EGFR; [7]) [nM] | Structure (SMILES) | IC50 [2] [nM] | further results
10 | 20000 | 100 | N#C/C(=C\c1cc(Cl)cc(Cl)c1)c1ccc[n+]([O-])c1 [Example 2, trans-2-(3-pyridyl)-3-(3,5-dichlorophenyl)-2-propenenitrile, N-oxide] | 30 ± 17 | IC50 [3]: 100 nM; IC50 (EGFR; [6]): ≥ 50000 nM
11 | 10000 | 400 | COc1ccc(C=C(C#N)c2c[nH]c3ccccc23)cc1OC [Example 5, 2-(3-Indolyl)-3-(3,4-dimethoxyphenyl)-2-propenenitrile] |  | 
12 | > 50000 | 20000 | COc1ccc(C=C(C#N)c2cn(S(=O)(=O)c3ccc([N+](=O)[O-])cc3)c3ccccc23)cc1OC [Example 6, 2-[1-(4-Nitrophenylsulfonyl)indol-3-yl]-3-(3,4-dimethoxyphenyl)-2-propenenitrile] | 17 | inhibition at 1 µM [3]: 15%
